Counter-ions that a name gives are not always drawn. Like-named read-outs stand apart in the source and are kept apart here. Marks after values point to notes of the source that are not given here.
Columns and labels:
KB cells = assay: Cell proliferation assay in tissue culture (SRB); format: cell-based; conditions: Homo sapiens, KB, 72 h
Protocol: Cell proliferation studies were performed according to procedures described by Loganzo et al. (Cancer Res. 2003, 63:1838-1845). Briefly, KB cells were plated in 96-well plates in 100 μL media at densities pre-determined to produce 60-90% confluence at the time of analysis. Compounds, which were serially diluted into media as 2× stocks, were added to cells in duplicate. After 72 hours of incubation, cell survival was assayed by the SRB assay as described (Rabindran et al., C. Cancer Res. 1998, 58:5850-5858). IC50 values (i.e. the concentration of drug needed to inhibit cell growth by 50%) were used to evaluate drug potency.

tubulin [1] = target: T1, tubulin (Bos taurus, UniProt P81947+Q6B856); assay: Competition of [3H]-Probe 2 photolabeling of tubulin; format: binding, bovine; conditions: 100 μM competitor, 2.5 μM tubulin, 0.25 μM [3H]-Probe 2, room temperature
T1 construct: MAP-rich bovine brain tubulin (99% purity), Hela cell tubulin (90% purity); purchased Cytoskeleton (Denver, Colo.); host or cells: bovine brain
Protocol: (§1) Alternatively, a cytosolic preparation of KB-3-1 cell lysates (50 μg) or KB-3-1 cells (40,000 cells) were used in the place of purified tubulin above. The supernatant of mechanically disrupted cells centrifuged at 100,000×g was used as a cytosolic preparation. K-3-1 cells were prepared by growing KB-3-1 cells in a 96-well plate and rinsing them with serum free medium.
Competition binding experiments were performed as described in Section 7.1.5. […] Samples were then irradiated for 2 hours at 4° C. and evaluated by SDS-PAGE and fluorography.

[2] = target: T2, tubulin in whole KB-3-1 cells (Homo sapiens, UniProt P07437+P68363); assay: Probe 1 photolabeling in whole KB-3-1 cells; format: cell-based; conditions: 250 μM pre-incubation at 37° C. for 15 minutes
T2 construct: a cytosolic preparation of KB-3-1 cell lysates (50 μg) or KB-3-1 cells (40,000 cells) were used in the place of purified tubulin; endogenous in cells; host or cells: KB-3-1 cells (cytosolic supernatant at 100,000 x g, or whole cells)
Protocol: as §1, with “medium. For experiments with whole cells, 250 μM HTI-286 was used as the competitor molecule during pre-incubation at 37° C. for 15 minutes.” for “medium.”
Samples were irradiated at 360 nm with a Mineralight lamp (UVP, Upland, Calif.) for 30 minutes (for Probe 1), 2 hours (for whole cells with Probe 1), or 2 hours (for Probe 2) at 4° C., unless otherwise noted. Radiation of the benzophenone moiety at this wavelength effectively activates the photoprobe with minimal destruction of protein compared to the shorter wavelengths typically used for azido-containing photoprobes (see, Williams et al., Methods Enzymol. 1986, 126:667-682). If whole cells were used, Laemmli sample buffer was then added to lyse the cells.

bovine brain tubulin [3] = target: T3, bovine brain tubulin (Bos taurus, UniProt P81947+Q6B856); assay: Competition of [3H]-Probe 1 photolabeling of tubulin; format: binding; conditions: for inhibition of incorporation of radiolabeled Probe 1 into α-tubulin: 1 mM competitor, 37° C. incubation; for Probe 1 photolabeling of tubulin (% of no-competitor control): control (no competitor) = 100
T3 construct: MAP-rich bovine brain tubulin (99% purity), Hela cell tubulin (90% purity); purchased Cytoskeleton (Denver, Colo.); host or cells: bovine brain
Protocol: as §1
If whole cells were used, Laemmli sample buffer was then added to lyse the cells.
Low grade SDS (Sigma, catalog No. L5750) was used in the running buffer, when needed, to allow separation of α and β-tubulin subunits. Gels were fixed, stained with Coomassie blue from BioRad (Hercules, Calif.) to ensure equal loading of protein, and sliced. […] Alternatively, gels were incubated with EN^3HANCE according to the manufacturer's instructions (Life Sciences Products, Inc.), washed, and dried prior to exposure of the gel to Biomax MX film from Kodak (Rochester, N.Y.) for fluorography.
After incubation for 30 minutes at 37° C., samples were irradiated with 360 nm UV light for 30 minutes and separated by SDS-PAGE. Gels were exposed to film using fluorographic techniques.
In particular, photolabeling experiments were performed as described in section 7.1.5 above, at both room temperature and at 37° C.

tubulin [4] = target: T1, tubulin; assay: Separation of polymerized and free tubulin by centrifugation; format: biochemical, bovine; conditions: 50 μM drug, centrifugation at 10,000 g and 100,000 g
Protocol: Tubulin (5 μg) was incubated with 50 μM drug at room temperature for 25 minutes and then centrifuged at either 10,000 g for 15 minutes in a tabletop microfuge or at 100,000 g for 15 minutes in an airfuge. The supernatant was carefully removed to a fresh tube to obtain free tubulin and the pellet was solubilized in SDS-PAGE sample buffer.

bovine brain tubulin [5] = target: T3, bovine brain tubulin; assay: Reversible binding affinity assay (tubulin fluorescence)
Protocol: The affinity of both HTI-286 and of non-radiolabled Probe 1 and Probe 2, to bovine brain tubulin was determined by previously published methods (Krishnamurthy et al., Biochem., submitted). Briefly, 5 mg/mL […] tubulin prepared in PEM buffer was pre-incubated with buffer or varying concentrations of test agents in individual quartz cuvettes. The intrinsic tryptophan fluorescence of tubulin (excitation at 560 nm and maximal emission at 580 nm) was measured after pre-incubation for 90 minutes. The change in fluorescence intensity at 580 nm in the presence of compound was fitted to a quadratic equation to obtain apparent dissociation constants (KD) of the test agents.

bovine MAP-rich tubulin = target: T4, bovine MAP-rich tubulin (Bos taurus, UniProt P81947+Q6B856); assay: Tubulin polymerization assay in a cell-free system; format: biochemical; conditions: 0.3 μM compound
T4 construct: MAP-rich bovine brain tubulin (99% purity), Hela cell tubulin (90% purity); purchased Cytoskeleton (Denver, Colo.); host or cells: bovine brain
Protocol: In vitro tubulin polymerization assays were performed according to procedures that have been described elsewhere (Loganzo et al., Cancer Res. 2003, 63:1838-1845). Briefly, bovine MAP-rich tubulin (final concentration 1.5 mg/mL) was dissolved in cold PEM buffer containing 1 mM GTP (GPEM) and centrifuged at 12,000×g for 10 minutes at 4° C. The tubulin solution (100 μL/well) was added rapidly to wells of a low-volume, 96-well plate already containing duplicate aliquots (10 μL) of test compounds in GPEM. Final compound concentrations were 0.3 μM. Control wells contained the same final concentration of DMSO (0.3%). After initiation of the reaction, absorbance at 340 nm was measured every minute for 60 minutes at 24° C. using a SpectraMax Plus plate reader (Molecular Devices, Sunnyvale, Calif.). An increase in absorbance over time indicated an increase in turbidity resulting from tubulin polymerization.

α-tubulin = target: T5, α-tubulin (Bos taurus, UniProt P81947+Q6B856); assay: Subtilisin digestion of tubulin after incubation with various compounds; format: biochemical, bovine; conditions: 50 μM drug, subtilisin up to 60 min at room temperature
T5 construct: MAP-rich bovine brain tubulin (99% purity), Hela cell tubulin (90% purity); purchased Cytoskeleton (Denver, Colo.); host or cells: bovine brain
Protocol: Tubulin (5 μg) was incubated with 50 μM drug at room temperature for 25 minutes and then digested under native conditions with subtilisin (0.05 μg) for 0, 5, 10, 15, 30 and 60 min at room temperature. Enzymatic digestion was stopped with 1 mM PMSF and samples were resolved by SDS-PAGE under conditions that allowed separation of α- and β-tubulin subunits. Gels were then fixed and stained with Coomassie blue.

P-glycoprotein = P-glycoprotein (Homo sapiens, UniProt P08183); conditions: Loganzo et al., Cancer Res. 2003; cited from earlier work

Structure (SMILES): CN[C@H](C(=O)N[C@H](C(=O)N(C)[C@H](/C=C(\C)C(=O)O)C(C)C)C(C)(C)C)C(C)(C)c1ccccc1 [HTI-286, N,β,β-trimethyl-L-phenylalany-N^1[(1S,2E)-3-carboxy-1-isopropylbut-2-enyl]-N^1,3-dimethyl-L-valinamide trifluoroacetate]
- IC50 (KB cells): 0.96 nM
- inhibition of Probe 2 labeling of tubulin (tubulin [1]): 45%
- competition of radiolabeled Probe 1 labeling in whole cells [2]: eliminates the specific labeling of the 50 kDa tubulin band
- inhibition of incorporation of radiolabeled Probe 1 into α-tubulin (bovine brain tubulin [3]; 0.25 μM radiolabeled Probe 1, 2.5 μM tubulin): completely inhibits
- inhibition of incorporation of radiolabeled Probe 1 into α-tubulin (bovine brain tubulin [3]; 2.5 μM radiolabeled Probe 1, 2.5 μM tubulin): more than 50%
- reduction of Probe 1 photolabeling of tubulin (bovine brain tubulin [3]; 37° C.): about 50%
- Probe 1 photolabeling of tubulin (% of no-competitor control) (bovine brain tubulin [3]; 37° C., 100 μM competitor): 47^† %
- Probe 1 photolabeling of tubulin (% of no-competitor control) (bovine brain tubulin [3]; Room Temp., 2.5 μM tubulin, 0.25 μM radiolabeled Probe 1, 100 μM competitor): 27 ± 4%
- IC50 (bovine brain tubulin [3]; room temperature, 2.5 μM tubulin, 0.25 μM radiolabeled Probe 1, read-out: IC50 for inhibition of Probe 1 photolabeling of tubulin): 7000 nM
- reduction of Probe 1 photolabeling of tubulin (bovine brain tubulin [3]; room temperature, 400-fold molar excess (100 μM) competitor, 2.5 μM tubulin, 0.25 μM radiolabeled Probe 1): approximately 72%
- protein recovered in pellet fractions (tubulin aggregation) (tubulin [4]): no significant protein was recovered
- Kd (bovine brain tubulin [5]; Table 1, binding to bovine brain tubulin, read-out: KD): 400 to 800 nM
- Kd (bovine brain tubulin [5]; rhodamine-labeled tubulin, 90 minutes pre-incubation, read-out: apparent binding constant (KD), fluorescence method): 600 nM
- inhibition at 0.3 µM (bovine MAP-rich tubulin): 88%
- tubulin polymerization (% inhibition) (bovine MAP-rich tubulin; 0.3 µM): 87.5 ± 12.2 (n = 49) %
- protection of α-tubulin from subtilisin cleavage (α-tubulin): unable to cleave α-tubulin even after 60 minutes
- interaction with P-glycoprotein (P-glycoprotein): weak interaction

Source: patent US20070026478A1, “Hemiasterlin affinity probes and their uses” (WYETH, priority 2002, published 2007)
